What follows are molecules tested against Glutaminyl-peptide cyclotransferase-like protein (Homo sapiens, UniProt Q9NXS2) (assay: Inhibition of recombinant human isoQC using H-Gln-AMC hydrobromide as fluorogenic substrate incubated for 6 hrs by fluorometric microplate reader analysis).
Glutaminyl-peptide cyclotransferase-like protein, sequence (Q9NXS2 whole entry): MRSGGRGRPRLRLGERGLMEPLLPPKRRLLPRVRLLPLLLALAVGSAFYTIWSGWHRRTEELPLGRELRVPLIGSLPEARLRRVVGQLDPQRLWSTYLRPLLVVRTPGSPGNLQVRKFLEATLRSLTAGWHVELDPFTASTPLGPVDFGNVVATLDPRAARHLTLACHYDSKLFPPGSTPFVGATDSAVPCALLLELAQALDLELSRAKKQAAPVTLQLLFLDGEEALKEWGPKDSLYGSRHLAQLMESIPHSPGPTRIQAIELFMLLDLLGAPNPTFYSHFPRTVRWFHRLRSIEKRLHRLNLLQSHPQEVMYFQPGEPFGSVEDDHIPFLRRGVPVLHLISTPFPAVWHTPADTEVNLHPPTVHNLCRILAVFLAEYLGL

IC50 [µM] | Compound
0.351 | COc1ccc(NC(=S)NCCCn2ccnc2)cc1OC

What follows are molecules tested against Glutaminyl-peptide cyclotransferase (Homo sapiens, UniProt Q16769).
Glutaminyl-peptide cyclotransferase, sequence (Q16769 whole entry): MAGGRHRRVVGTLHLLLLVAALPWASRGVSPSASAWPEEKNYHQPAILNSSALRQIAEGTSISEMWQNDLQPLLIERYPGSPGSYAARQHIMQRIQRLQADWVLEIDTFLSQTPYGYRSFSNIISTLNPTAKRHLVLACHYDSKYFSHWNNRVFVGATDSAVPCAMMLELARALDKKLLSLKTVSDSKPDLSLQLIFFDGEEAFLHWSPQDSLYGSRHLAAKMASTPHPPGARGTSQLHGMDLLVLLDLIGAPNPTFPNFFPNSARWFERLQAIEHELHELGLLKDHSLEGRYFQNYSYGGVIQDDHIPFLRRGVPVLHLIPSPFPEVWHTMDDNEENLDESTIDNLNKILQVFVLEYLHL
Description: Inhibition of recombinant human QC using H-Gln-AMC hydrobromide as fluorogenic substrate incubated for 6 hrs by fluorometric microplate reader analysis

IC50 [µM] | Compound
203 | O=C(O)c1ccc2cccc(O)c2n1
144 | Cc1cncn1-c1ccccc1
772 | Cn1cccc(O)c1=O
232 | O=c1ccocc1O
390 | O=C1CNC(=S)N1 [THIOHYDANTOIN]

Compound | IC50 [µM]
Cc1c[nH]cn1 | 110
Sc1nc2ccccc2[nH]1 [2-MERCAPTOBENZIMIDAZOLE] | 551
Oc1ccccc1O [CATECHOL] | 5
Oc1cccc2cccnc12 [OXYQUINOLINE] | 208
